Structures are written as SMILES. Calls of active or inactive are those of the source.

The target of one experiment is Nonstructural protein 1 (Influenza A virus, UniProt Q194T2). The experiment is classed as functional, Influenza A virus (A/California/07/2009(H1N1)).
Experiment [1] addresses T1, Histone-lysine N-methyltransferase NSD2 (Homo sapiens, UniProt O96028).
T1 sequence (O96028 whole entry): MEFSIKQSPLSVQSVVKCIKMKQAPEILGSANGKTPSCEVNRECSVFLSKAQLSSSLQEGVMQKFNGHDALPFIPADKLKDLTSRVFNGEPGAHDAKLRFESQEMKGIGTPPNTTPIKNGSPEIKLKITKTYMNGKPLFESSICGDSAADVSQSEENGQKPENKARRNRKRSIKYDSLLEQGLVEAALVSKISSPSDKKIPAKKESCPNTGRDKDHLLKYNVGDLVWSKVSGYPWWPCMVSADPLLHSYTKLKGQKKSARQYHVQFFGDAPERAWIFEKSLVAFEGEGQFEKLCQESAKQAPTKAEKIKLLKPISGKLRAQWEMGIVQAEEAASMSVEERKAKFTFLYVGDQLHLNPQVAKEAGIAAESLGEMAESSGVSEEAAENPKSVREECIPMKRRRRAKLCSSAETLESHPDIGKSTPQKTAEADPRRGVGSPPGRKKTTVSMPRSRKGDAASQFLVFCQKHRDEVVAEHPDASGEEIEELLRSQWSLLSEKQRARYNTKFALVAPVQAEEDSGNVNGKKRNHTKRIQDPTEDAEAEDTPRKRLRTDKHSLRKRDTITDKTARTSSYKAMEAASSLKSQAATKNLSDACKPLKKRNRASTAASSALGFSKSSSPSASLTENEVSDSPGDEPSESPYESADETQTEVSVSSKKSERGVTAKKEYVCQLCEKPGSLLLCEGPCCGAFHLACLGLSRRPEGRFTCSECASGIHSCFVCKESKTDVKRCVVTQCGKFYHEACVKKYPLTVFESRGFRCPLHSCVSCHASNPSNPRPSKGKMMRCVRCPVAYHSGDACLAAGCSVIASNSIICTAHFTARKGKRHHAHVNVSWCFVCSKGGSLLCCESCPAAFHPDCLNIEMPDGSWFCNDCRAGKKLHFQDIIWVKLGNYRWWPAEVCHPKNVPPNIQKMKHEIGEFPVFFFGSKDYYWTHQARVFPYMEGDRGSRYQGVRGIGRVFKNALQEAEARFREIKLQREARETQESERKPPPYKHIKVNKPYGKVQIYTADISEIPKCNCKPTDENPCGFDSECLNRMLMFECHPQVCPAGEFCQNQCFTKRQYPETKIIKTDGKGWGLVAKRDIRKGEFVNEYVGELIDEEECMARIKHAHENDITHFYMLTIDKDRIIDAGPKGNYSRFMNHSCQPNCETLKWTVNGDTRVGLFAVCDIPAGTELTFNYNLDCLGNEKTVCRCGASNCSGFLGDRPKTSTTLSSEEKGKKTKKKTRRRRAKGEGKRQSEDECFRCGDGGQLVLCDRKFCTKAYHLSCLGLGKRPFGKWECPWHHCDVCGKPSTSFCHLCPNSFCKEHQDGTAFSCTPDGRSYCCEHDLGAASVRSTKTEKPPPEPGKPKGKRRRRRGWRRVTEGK
Format: biochemical.

The next experiment relates to Vero. As to the kind of experiment: viability of Vero cells under compound – cytotoxicity control for flavivirus capping enzyme inhibitors (AID 588742). The experiment is classed as functional. As to conditions: Chlorocebus sabaeus.
In experiment [2] the target is T2, Endoribonuclease toxin MazF (Escherichia coli K-12, UniProt P0AE70).
T2 sequence (P0AE70 whole entry): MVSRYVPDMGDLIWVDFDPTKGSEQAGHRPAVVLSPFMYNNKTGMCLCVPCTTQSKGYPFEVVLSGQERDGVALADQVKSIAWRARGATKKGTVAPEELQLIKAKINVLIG
As to the kind of experiment: activation of MazEF endoribonuclease cleavage – biochemical, fluorescence, single-stranded RNA substrate, uHTS hits, dose response (AID 588481). Format: functional.

For experiment [3], the target named is T2, Endoribonuclease toxin MazF. As to the kind of experiment: substrate-only fluorescence increase artefacts – biochemical, single-stranded RNase substrate, counter-screen for MazEF activator project, dose response (AID 588502). The experiment is classed as functional.
The target in experiment [4] is T3, Corticotropin-releasing factor receptor 2/Corticotropin-releasing factor-binding protein (Homo sapiens, UniProt P24387+Q13324).
T3 sequence (Q13324 whole entry): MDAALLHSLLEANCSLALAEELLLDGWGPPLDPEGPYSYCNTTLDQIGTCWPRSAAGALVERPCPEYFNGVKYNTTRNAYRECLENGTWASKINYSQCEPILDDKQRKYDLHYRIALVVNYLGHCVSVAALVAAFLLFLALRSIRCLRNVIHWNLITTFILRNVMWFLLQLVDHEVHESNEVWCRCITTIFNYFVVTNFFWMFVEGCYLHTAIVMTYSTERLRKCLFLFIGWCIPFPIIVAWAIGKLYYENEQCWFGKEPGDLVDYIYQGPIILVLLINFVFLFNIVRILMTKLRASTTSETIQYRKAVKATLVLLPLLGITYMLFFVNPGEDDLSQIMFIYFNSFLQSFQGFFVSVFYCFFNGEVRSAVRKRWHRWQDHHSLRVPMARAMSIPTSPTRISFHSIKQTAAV
T3 sequence (P24387 whole entry): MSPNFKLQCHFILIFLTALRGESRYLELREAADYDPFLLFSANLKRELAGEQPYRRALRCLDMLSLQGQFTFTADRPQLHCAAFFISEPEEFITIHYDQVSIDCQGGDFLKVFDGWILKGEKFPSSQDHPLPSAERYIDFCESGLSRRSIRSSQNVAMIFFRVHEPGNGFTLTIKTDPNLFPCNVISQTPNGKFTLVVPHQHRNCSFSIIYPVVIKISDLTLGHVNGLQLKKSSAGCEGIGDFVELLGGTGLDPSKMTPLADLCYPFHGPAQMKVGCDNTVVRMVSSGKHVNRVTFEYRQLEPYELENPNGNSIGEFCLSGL
As to the kind of experiment: Dose Response confirmation of uHTS hits for small molecule antagonists of the CRF-binding protein and CRF-R2 receptor complex. The experiment is classed as functional. The note with it: read-out: IC50_Mean.

Another experiment has as its target Cytochrome P450 3A4 (Homo sapiens, UniProt P08684).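 Further: CYP3A4 tested as one member of a cytochrome P450 panel screen.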
The target of experiment [5] is T3, Corticotropin-releasing factor receptor 2/Corticotropin-releasing factor-binding protein. As to the kind of experiment: activators of CRF receptor 2 with binding protein – uHTS hits, confirmation (AID 602473). The experiment is classed as functional. As to conditions: read-out: EC50_Mean.
Experiment [6] in a line: blockers of CRF-binding protein–CRF-R2 complex – cell-based, uHTS hits, 384-well, dose response (AID 651639). The note with it: read-out: IC50_Mean. Format: functional, Homo sapiens.
In experiment [7] the target is T4, Short transient receptor potential channel 4 (Mus musculus, UniProt Q9QUQ5).
T4 sequence (Q9QUQ5 whole entry): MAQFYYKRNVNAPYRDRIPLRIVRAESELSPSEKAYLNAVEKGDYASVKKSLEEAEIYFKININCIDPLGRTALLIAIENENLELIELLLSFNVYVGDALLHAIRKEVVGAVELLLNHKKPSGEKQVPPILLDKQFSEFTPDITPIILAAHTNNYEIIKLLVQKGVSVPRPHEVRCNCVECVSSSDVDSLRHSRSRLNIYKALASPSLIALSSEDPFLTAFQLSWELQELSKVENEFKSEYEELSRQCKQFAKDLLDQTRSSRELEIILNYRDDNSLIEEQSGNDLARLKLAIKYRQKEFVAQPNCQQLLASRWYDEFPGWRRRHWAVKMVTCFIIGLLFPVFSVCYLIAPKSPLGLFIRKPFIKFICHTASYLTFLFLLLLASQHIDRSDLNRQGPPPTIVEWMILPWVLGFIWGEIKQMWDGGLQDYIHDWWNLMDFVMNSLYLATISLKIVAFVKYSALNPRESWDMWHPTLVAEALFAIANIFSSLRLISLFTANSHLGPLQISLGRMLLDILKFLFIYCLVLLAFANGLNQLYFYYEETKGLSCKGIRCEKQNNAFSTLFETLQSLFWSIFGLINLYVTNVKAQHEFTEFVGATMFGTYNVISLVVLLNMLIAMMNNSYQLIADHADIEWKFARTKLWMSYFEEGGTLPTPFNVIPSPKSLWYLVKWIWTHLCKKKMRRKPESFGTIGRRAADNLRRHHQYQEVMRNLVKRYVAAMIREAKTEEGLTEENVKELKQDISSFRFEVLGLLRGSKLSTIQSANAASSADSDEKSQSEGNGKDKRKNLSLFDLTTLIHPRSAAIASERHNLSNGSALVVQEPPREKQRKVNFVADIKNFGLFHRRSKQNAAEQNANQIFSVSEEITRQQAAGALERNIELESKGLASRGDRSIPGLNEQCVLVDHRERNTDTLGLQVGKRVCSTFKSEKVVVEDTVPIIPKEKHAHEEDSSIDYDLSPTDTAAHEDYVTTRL
As to the kind of experiment: block of DAMGO-driven TRPC4 calcium entry – cell-based, HEK293 TRPC4/mu-opioid, Fluo-4 calcium, dose response (AID 434942).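 Further: potency of inhibitors blocking the TRPC4 calcium response.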 The experiment is classed as functional.

In another experiment the target is T5, Protein skinhead-1 (Caenorhabditis elegans, UniProt P34707).
T5 sequence (P34707 whole entry): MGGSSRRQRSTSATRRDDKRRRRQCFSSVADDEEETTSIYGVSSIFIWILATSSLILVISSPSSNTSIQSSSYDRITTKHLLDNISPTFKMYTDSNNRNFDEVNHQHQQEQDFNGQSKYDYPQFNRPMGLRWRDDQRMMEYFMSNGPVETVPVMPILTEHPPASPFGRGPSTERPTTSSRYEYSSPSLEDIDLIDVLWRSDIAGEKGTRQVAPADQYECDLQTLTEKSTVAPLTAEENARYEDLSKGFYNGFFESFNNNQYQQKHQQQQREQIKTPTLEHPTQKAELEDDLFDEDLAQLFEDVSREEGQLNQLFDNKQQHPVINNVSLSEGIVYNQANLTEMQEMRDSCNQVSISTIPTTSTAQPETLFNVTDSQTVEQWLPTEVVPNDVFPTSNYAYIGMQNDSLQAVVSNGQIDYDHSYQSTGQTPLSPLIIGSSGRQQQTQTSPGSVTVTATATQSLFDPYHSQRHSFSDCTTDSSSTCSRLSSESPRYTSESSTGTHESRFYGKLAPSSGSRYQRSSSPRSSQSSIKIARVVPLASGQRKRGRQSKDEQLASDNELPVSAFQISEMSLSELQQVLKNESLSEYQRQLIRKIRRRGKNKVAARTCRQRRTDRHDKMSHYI
The experiment is classed as functional.

Experiment [8] deals with T6, Calpain-2 catalytic subunit (Sus scrofa, UniProt P43367).
T6 sequence (P43367 whole entry): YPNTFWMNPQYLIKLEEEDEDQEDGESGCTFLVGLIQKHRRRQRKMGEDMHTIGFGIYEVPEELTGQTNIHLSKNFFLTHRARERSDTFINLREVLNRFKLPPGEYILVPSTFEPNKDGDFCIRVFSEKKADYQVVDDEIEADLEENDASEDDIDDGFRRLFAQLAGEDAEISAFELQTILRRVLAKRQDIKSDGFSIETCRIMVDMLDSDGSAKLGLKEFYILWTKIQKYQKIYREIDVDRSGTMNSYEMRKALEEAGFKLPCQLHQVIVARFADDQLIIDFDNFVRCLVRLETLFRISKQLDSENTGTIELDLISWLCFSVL
As to the kind of experiment: m-calpain protease blockers, concentration series – biochemical, fluorogenic peptide substrate, dose response (AID 1420). The experiment is classed as functional.

Experiment [9] addresses T7, Heat shock factor protein 1 (Mus musculus, UniProt P38532).
T7 sequence (P38532 whole entry): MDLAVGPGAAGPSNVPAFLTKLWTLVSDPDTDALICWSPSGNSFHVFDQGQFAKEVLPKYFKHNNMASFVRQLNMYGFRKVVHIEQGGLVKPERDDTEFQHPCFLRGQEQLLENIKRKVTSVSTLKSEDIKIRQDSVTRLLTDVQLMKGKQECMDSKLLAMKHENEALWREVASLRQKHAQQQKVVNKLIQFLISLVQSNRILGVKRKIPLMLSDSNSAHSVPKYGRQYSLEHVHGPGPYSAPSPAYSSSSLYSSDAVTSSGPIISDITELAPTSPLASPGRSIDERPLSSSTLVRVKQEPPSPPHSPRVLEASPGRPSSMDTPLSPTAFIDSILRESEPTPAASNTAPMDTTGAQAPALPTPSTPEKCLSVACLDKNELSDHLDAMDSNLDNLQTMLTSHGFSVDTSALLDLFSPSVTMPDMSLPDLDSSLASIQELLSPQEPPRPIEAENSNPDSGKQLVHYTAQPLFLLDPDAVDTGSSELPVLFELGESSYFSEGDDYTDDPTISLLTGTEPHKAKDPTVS
As to the kind of experiment: decrease of HSF1-responsive luciferase luminescence – cell-based, NIH3T3, dose retest, confirmation (AID 2382).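 Further: NIH3T3 fibroblasts with HSF1-driven luciferase reporter stressed by proteasome inhibitor MG132; luminescence from HSF1-driven luciferase expression after 8 hours of MG132 stress.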 Format: functional.

The nature of a further experiment: cells. Format: functional, cell-based.

Nonstructural protein 1, sequence (Q194T2 whole entry): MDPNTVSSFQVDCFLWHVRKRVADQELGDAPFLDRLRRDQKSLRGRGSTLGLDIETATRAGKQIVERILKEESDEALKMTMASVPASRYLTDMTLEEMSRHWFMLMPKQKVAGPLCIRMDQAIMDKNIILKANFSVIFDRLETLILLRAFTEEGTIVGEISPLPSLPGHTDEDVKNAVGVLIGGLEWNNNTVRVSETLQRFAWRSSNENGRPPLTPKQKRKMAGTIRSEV
Cytochrome P450 3A4, sequence (P08684 whole entry): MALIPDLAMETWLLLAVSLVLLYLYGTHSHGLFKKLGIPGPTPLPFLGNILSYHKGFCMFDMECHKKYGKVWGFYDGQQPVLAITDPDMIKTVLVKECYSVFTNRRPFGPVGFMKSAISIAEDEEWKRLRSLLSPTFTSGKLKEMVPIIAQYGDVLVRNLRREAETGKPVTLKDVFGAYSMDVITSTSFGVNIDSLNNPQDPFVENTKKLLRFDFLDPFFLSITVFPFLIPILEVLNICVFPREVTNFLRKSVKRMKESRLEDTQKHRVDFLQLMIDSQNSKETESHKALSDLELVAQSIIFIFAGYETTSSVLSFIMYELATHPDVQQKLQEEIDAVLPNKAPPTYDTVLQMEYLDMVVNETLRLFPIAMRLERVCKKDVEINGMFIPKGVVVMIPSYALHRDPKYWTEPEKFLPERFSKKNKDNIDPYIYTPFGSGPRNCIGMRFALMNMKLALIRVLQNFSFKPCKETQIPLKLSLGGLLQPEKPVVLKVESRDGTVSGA

As to `O=C1NC(=S)N(C2CC2)C(=O)/C1=C/NNC(=O)c1ccccc1O`, the IC50 on Nonstructural protein 1 is 16.2 µM (active).

In general, AC50 refers to the midpoint of the concentration-response curve, whichever way the signal moves. Usually CC50 stands for the concentration giving 50% cytotoxicity. In the case of `CCOC(=O)C1=C(C)N=c2s/c(=C/c3cccc([N+](=O)[O-])c3O)c(=O)n2C1c1ccccc1` (centres undefined), in experiment [1], the AC50 was > 20 µM (inactive). For the same compound, the CC50 in the experiment on Vero is 31.1 µM (active). Also, on Nonstructural protein 1, the IC50 was 22.1 µM (active).

As for `CC(=O)n1c(/C=N/c2ccc(Cl)cc2)c(O)c2ccccc21`, the results for the EC50 in experiment [2] and in experiment [3] were > 99 µM (inactive) and 31.1 µM (inactive), respectively.

Consider `Cc1cc([N+](=O)[O-])ccc1NCc1ccccc1`, for which the IC50 in experiment [4] was 4.41 µM (active); in experiment [6], 8.31 µM (active); at Protein skinhead-1 it was 66.9 µM (inactive). Further, on Cytochrome P450 3A4, the AC50 is 14.1 µM (inconclusive). Moreover, the EC50 in [5] is > 53 µM (inactive); in [7], 0.841 µM (active).

With `Cc1nn(-c2ccccc2)c2c1C(c1ccc(Br)s1)C(C#N)=C(N)O2` (centres undefined), the results for the IC50 (in experiment [8]; at Nonstructural protein 1) were > 50 µM (not active) and 76.2 µM (active), respectively.

As for `Cc1ccc(O)c(/C=N/NC(=O)CN2CCCC2)c1`, the EC50 in [9] was > 195 µM (not active); in “cells”, 104 µM (active). Besides, the IC50 at Nonstructural protein 1 was 15.3 µM (active).

Consider `Cc1ccc2cc3c(N)c(C(=O)Nc4c(C)[nH]c(=O)[nH]c4=O)sc3nc2c1`, for which the EC50 in experiment [2] and in [3] was > 99 µM (inactive) in each case.

The values above are taken from ChEMBL document CHEMBL1201862, “PubChem BioAssay data set” (2004).
